Earlier results, collected in patent US20220378706A1, “PHARMACEUTICAL COMPOSITION COMPRISING PDE9 INHIBITOR” (Eisai R&D Management Co., Ltd., priority 2017, published 2022).

Tested on: CSF cGMP
Conditions: healthy subjects, 40 mg; cited from earlier work

## C[C@@H]1CN(Cc2ncccn2)C[C@H]1c1nc2c(cnn2C2CCOCC2)c(=O)[nH]1 [PF 04447943]
  CSF cGMP elevation: CSF cGMP elevation was demonstrated
